Target: T1, full-length beta-Catenin (Uniprot ID P35222) (Homo sapiens, UniProt P35222)
T1 construct: 10 nM full-length beta-Catenin (Uniprot ID P35222)
T1 sequence (P35222 1-781): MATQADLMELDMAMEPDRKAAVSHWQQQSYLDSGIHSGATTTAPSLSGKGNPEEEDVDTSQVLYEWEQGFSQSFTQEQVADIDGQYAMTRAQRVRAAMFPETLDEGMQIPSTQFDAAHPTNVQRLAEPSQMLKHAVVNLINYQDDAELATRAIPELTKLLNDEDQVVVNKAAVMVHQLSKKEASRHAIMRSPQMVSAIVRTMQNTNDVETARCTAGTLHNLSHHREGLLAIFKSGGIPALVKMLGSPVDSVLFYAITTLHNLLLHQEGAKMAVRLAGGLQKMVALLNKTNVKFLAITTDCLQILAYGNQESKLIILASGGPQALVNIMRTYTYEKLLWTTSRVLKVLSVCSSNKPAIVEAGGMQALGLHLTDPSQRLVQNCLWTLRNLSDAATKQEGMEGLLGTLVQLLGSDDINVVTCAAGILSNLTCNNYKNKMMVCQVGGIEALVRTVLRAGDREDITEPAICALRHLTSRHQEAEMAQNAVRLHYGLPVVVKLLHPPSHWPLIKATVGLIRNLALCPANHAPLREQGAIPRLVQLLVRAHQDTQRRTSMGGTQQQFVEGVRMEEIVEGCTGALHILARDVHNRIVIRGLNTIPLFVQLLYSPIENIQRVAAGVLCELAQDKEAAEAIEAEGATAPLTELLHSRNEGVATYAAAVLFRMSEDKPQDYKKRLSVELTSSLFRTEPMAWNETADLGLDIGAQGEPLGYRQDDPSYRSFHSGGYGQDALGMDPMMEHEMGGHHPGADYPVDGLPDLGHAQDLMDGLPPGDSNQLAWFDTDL
Assay: Fluorescence polarization IC50 (beta-catenin / 5FAM-TCF4 10-53 competition)
Type: binding
Conditions: fluorescence polarization; read-out: beta-Catenin FP IC50

Structure (SMILES) | IC50 [nM]
CC(=O)N1CCC[C@]12CC=CCCCC1(CCCC=CCCCOC(=O)N3CC[C@@](C(=O)N[C@@H](Cc4ccccc4)C(=O)N[C@@H](Cc4csc5ccccc45)C(=O)N[C@@H](CCO)C(N)=O)(C3)NC(=O)[C@H](CC(N)=O)NC(=O)[C@H](Cc3ccccc3)NC(=O)[C@H](CO)NC(=O)[C@H](CCCCNC(C)C)NC(=O)[C@H](CCC(N)=O)NC(=O)[C@H](CC(=O)O)NC1=O)NC(=O)[C@H](CC1CCCCC1)NC(=O)[C@H](CC(N)=O)NC2=O (stereo partly drawn) [I-1931, Ac-PL3-Asn-Cha-B5-Asp-Gln-iPrLys-Ser-Phe-Asn-PyrS2-Phe-BztA-Hse-NH2] | 1560
CC(=O)N1CCC[C@]12CC=CCCCC1(CCCC=CCCCOC(=O)N3CC[C@@](C(=O)N[C@@H](Cc4ccccc4)C(=O)N[C@@H](Cc4csc5ccccc45)C(=O)N[C@@H](CCO)C(N)=O)(C3)NC(=O)[C@H](CC(N)=O)NC(=O)[C@H](Cc3ccccc3)NC(=O)[C@H](C)NC(=O)[C@H](CCCCNC(C)C)NC(=O)[C@H](CCC(N)=O)NC(=O)[C@H](CC(=O)O)NC1=O)NC(=O)[C@H](CC1CCCCC1)NC(=O)[C@H](CCO)NC2=O (stereo partly drawn) [I-1932, Ac-PL3-Hse-Cha-B5-Asp-Gln-iPrLys-Ala-Phe-Asn-PyrS2-Phe-BztA-Hse-NH2] | 285
CC(=O)N1CCC[C@]12CC=CCCCC1(CCCC=CCCCOC(=O)N3CC[C@@](C(=O)N[C@@H](Cc4ccccc4)C(=O)N[C@@H](Cc4csc5ccccc45)C(=O)N[C@@H](CCO)C(N)=O)(C3)NC(=O)[C@H](CC(N)=O)NC(=O)[C@H](Cc3ccccc3)NC(=O)[C@H](C)NC(=O)[C@H](CCCCNC(C)C)NC(=O)[C@H](CCO)NC(=O)[C@H](CC(=O)O)NC1=O)NC(=O)[C@H](CC1CCCCC1)NC(=O)[C@H](CC(N)=O)NC2=O (stereo partly drawn) [I-1933, Ac-PL3-Asn-Cha-B5-Asp-Hse-iPrLys-Ala-Phe-Asn-PyrS2-Phe-BztA-Hse-NH2] | 154

Second part, the compound after the results:

IC50 [nM] | Structure (SMILES)
5 | CC(=O)N1CCC[C@]12CC=CCCCC1(CCCC=CCCCOC(=O)N3CC[C@@](C(=O)N[C@@H](Cc4ccsc4)C(=O)N[C@@H](Cc4csc5ccccc45)C(=O)N[C@@H](CCC(N)=O)C(N)=O)(C3)NC(=O)[C@H](CCC(=O)N3CCn4cncc4C3)NC(=O)[C@H](Cc3ccccc3)NC(=O)[C@H](C)NC(=O)[C@H](C)NC(=O)[C@H](CN(CC(=O)O)CC(F)(F)F)NC(=O)[C@H](CC(=O)O)NC1=O)NC(=O)[C@H](CC(C)(C)C)NC(=O)[C@H](CC(=O)O)NC2=O (stereo partly drawn) [I-1934, Ac-PL3-Asp-Npg-B5-Asp-TfeGA-Ala-Ala-Phe-[H4IAP]GlnR-PyrS2-3Thi-BztA-Gln-NH2]
9 | CC(=O)N1CCC[C@]12CC=CCCCC1(CCCC=CCCCOC(=O)N3CC[C@@](C(=O)N[C@@H](Cc4ccsc4)C(=O)N[C@@H](Cc4csc5ccccc45)C(=O)N[C@@H](CCC(N)=O)C(N)=O)(C3)NC(=O)[C@H](CCC(=O)N3CCC(N4CCN(C)CC4)CC3)NC(=O)[C@H](Cc3ccccc3)NC(=O)[C@H](C)NC(=O)[C@H](C)NC(=O)[C@H](CN(CC(=O)O)CC(F)(F)F)NC(=O)[C@H](CC(=O)O)NC1=O)NC(=O)[C@H](CC(C)(C)C)NC(=O)[C@H](CC(=O)O)NC2=O (stereo partly drawn) [I-1937, Ac-PL3-Asp-Npg-B5-Asp-TfeGA-Ala-Ala-Phe-[4MePpzPip]GlnR-PyrS2-3Thi-BztA-Gln-NH2]
1630 | CC(=O)N1CCC[C@]12CC=CCCCC1(CCCC=CCCCOC(=O)N3CC[C@@](C(=O)N[C@@H](Cc4ccsc4)C(=O)N[C@@H](Cc4csc5ccccc45)C(=O)N[C@@H](CCC(N)=O)C(N)=O)(C3)NC(=O)[C@H](CC(C)C)NC(=O)[C@H](Cc3ccccc3)NC(=O)[C@H](C)NC(=O)[C@H](C)NC(=O)[C@H](CC(=O)O)NC(=O)[C@H](CC(=O)S)NC1=O)NC(=O)[C@H](CC(C)(C)C)NC(=O)[C@H](CC(=O)O)NC2=O (stereo partly drawn) [I-1944, Ac-PL3-Asp-Npg-B5-AspSH-Asp-Ala-Ala-Phe-Leu-PyrS2-3Thi-BztA-Gln-NH2]

— patent US20240116985A1, “STAPLED PEPTIDES AND METHODS THEREOF” (priority 2020, published 2024)
